Measurements reported in the supplement of paper PMC11208160.

test: recombinant barcode read abundance after kanamycin selection (control-corrected) (log10(CPM+1)); higher = more efficient recombination; sequences stand for … in AGTGCAGAGAAAATCGGCCAGTTTTCTCTGCCTGCAGTCCGCATGCCGT…AGATTTATGCAGCGGACTGCCTTTCTCCCAAAGTGATAAACCGGACAGTATCATGGACCGGTTTTCCCGGTAATCCGTATTTGCAAGGTTGGTTTCACT; site = the 11-nt target
How it was run: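 In a pooled screen in E. coli, targets were paired with target-binding loops of the IS621 bridge RNA. Each oligo carried a promoter, a target, a barcode and the first 104 bridge RNA bases driven by J23119, and was Gibson-cloned into a vector holding the remaining 73 bp and a T7-inducible recombinase before co-electroporation with a donor plasmid. Duplicate platings went onto chloramphenicol/ampicillin LB agar as the control or onto chloramphenicol/ampicillin/kanamycin with 0.1 mM IPTG. Recombination efficiency is the averaged, control-corrected count per million of barcodes at recombinant junctions, given as log10(CPM+1).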
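Also: IS621 recombinase and bridge RNA in Escherichia coli cells.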

Row | Sequence | recombinant barcode read abundance (log10)
1 | TGACGCTCTTGGGTTCTAACCTGTTGCCT (site TGACGCTCTAG) | 0.905
2 | TGACGCTCTTGGGTTCTAACCTGTTGCCT (site TGCCGCTCTAG) | 0.149
3 | TGACGCTCTTGGGTTCTAACCTGTTGCCT (site TGGCGCTCTAG) | 0.323
4 | TGACGCTCTTGGGTTCTAACCTGTTGCCT (site TGTCGCTCTAG) | 0.433
5 | TGACTACCTTGGGTTCTAACCTGTTGCCT (site TCGCTACCTAG) | 0.0696
6 | TGACTACCTTGGGTTCTAACCTGTTGCCT (site TGACTACCTAG) | 0.838
7 | TGACTAGCTTGGGTTCTAACCTGTTGCCT (site TGACTAGCTAG) | 0.176
8 | TGACTAGCTTGGGTTCTAACCTGTTGCCT (site TGCCTAGCTAG) | 0.03
9 | TGACTAGCTTGGGTTCTAACCTGTTGCCT (site TGGCTAGCTAG) | 0.0206
10 | TGACTAGCTTGGGTTCTAACCTGTTGCCT (site TGTCTAGCTAG) | 0.0443
11 | TGAGAACCTTGGGTTCTAACCTGTTGCCT (site AGAGAACCTAG) | 0.666
12 | TGAGAACCTTGGGTTCTAACCTGTTGCCT (site CGAGAACCTAG) | 0.486
13 | TGAGAACCTTGGGTTCTAACCTGTTGCCT (site GGAGAACCTAG) | 0.118
14 | TGAGAACCTTGGGTTCTAACCTGTTGCCT (site TGAGAACCTAG) | 2.33
15 | TGAGAGGCTTGGGTTCTAACCTGTTGCCT (site TGAGAGGCTAG) | 0.718
16 | TGAGAGGCTTGGGTTCTAACCTGTTGCCT (site TGAGCGGCTAG) | 0.173
17 | TGAGAGGCTTGGGTTCTAACCTGTTGCCT (site TGAGGGGCTAG) | 0.361
18 | TGAGAGGCTTGGGTTCTAACCTGTTGCCT (site TGAGTGGCTAG) | 0.638
19 | TGAGTCCCTTGGGTTCTAACCTGTTGCCT (site TGAGTCCCTAG) | 2.03
20 | TGAGTCCCTTGGGTTCTAACCTGTTGCCT (site TGCGTCCCTAG) | 0.201
21 | TGAGTCCCTTGGGTTCTAACCTGTTGCCT (site TGGGTCCCTAG) | 0.444
22 | TGAGTCCCTTGGGTTCTAACCTGTTGCCT (site TGTGTCCCTAG) | 0.523

Row | Sequence | recombinant barcode read abundance (log10)
23 | TGATATGCTTGGGTTCTAACCTGTTGCCT (site TGAAATGCTAG) | 0.322
24 | TGATATGCTTGGGTTCTAACCTGTTGCCT (site TGACATGCTAG) | 0.347
25 | TGATATGCTTGGGTTCTAACCTGTTGCCT (site TGAGATGCTAG) | 0.0846
26 | TGATATGCTTGGGTTCTAACCTGTTGCCT (site TGATATGCTAG) | 0.463
27 | TGATTGACTTGGGTTCTAACCTGTTGCTT (site GATGCACCTCC) | 0.194
28 | TGATTGACTTGGGTTCTAACCTGTTGCTT (site TGATTGACTAA) | 0.0769
29 | TGCATAGCTTGGGTTCTAACCTGTTGCCA (site CTTGCGACTAA) | 0.068
30 | TGCATAGCTTGGGTTCTAACCTGTTGCCA (site TGCATAGCTTG) | 0.0795
31 | TGCCACCCTTGGGTTCTAACCTGTTGCGT (site TACTACCCTAC) | 0.0993
32 | TGCCACCCTTGGGTTCTAACCTGTTGCGT (site TGCCACCCTAC) | 2.14
33 | TGCCCCGCTTGGGTTCTAACCTGTTGCCT (site ACTTAGTCTGA) | 0.341
34 | TGCCCCGCTTGGGTTCTAACCTGTTGCCT (site TGCCCCGCTAG) | 1.11
35 | TGCCGAACTTGGGTTCTAACCTGTTGCCT (site AGCCGAACTAG) | 0.0709
36 | TGCCGAACTTGGGTTCTAACCTGTTGCCT (site CGCCGAACTAG) | 0.16
37 | TGCCGAACTTGGGTTCTAACCTGTTGCCT (site GGCCGAACTAG) | 0.0503
38 | TGCCGAACTTGGGTTCTAACCTGTTGCCT (site TGCCGAACTAG) | 0.161
39 | TGCCGCTCTTGGGTTCTAACCTGTTGCCT (site TGACGCTCTAG) | 1.35
40 | TGCCGCTCTTGGGTTCTAACCTGTTGCCT (site TGCCGCTCTAG) | 1.24
41 | TGCCGCTCTTGGGTTCTAACCTGTTGCCT (site TGGCGCTCTAG) | 0.277
42 | TGCCGCTCTTGGGTTCTAACCTGTTGCCT (site TGTCGCTCTAG) | 0.0629
43 | TGCGACCCTTGGGTTCTAACCTGTTGCTT (site TGCGACCCTAA) | 1.74
